Assay [1] concerns HCT116. Nature of the assay: AC50 cell viability (CellTiter-Glo); higher = less potent. As to conditions: 48 h.
The subject of assay [2] is HCT116. Nature of the assay: efficacy (fitted maximal change in viability relative to DMSO control); higher = less cytotoxic (negative = loss of viability). The following applies: 48 h.

AC50 cell viability and efficacy data for 51 compounds are collected here from the supplement of paper PMC10290057.

The structures appear in SMILES notation. “And” between values parts separate entries of the source, which are not always exact repeats. Identical values can stand only once. Counter-ions that a name gives are not always drawn.
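Wherever AC50 cell viability (CellTiter-Glo) is given: HCT116 colorectal carcinoma cells screened at five concentrations per compound, luminescent viability scaled between DMSO wells and empty wells on each plate, curves fitted per compound.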
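Wherever efficacy (fitted maximal change in viability relative to DMSO control) is given: Luminescence-based viability readout, five doses per compound, normalized against on-plate DMSO and empty-well controls, followed by dose-response curve fitting for every drug.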

Compound `CC(C)C[C@H](NC(=O)CNC(=O)c1cc(Cl)ccc1Cl)B(O)O` [Ixazomib] had an AC50 cell viability in assay [1] of 0.0833 µM. Further, in assay [2], the efficacy was -89.3%.
In turn, `N#CC(c1ccnc(NCCc2cccnc2)n1)c1nc2ccccc2s1` (configuration not stated) [JNK Inhibitor V] gave an AC50 cell viability in assay [1] of 8.33 µM. Further, the efficacy in assay [2] is -92.2%.
The like results for `CC1=C(C)C2=C(S1)[N]3C(=NN=C3[C@H](CC(=O)OC(C)(C)C)/N=C2/C4=CC=C(Cl)C=C4)C` [JQ1] were, in that order, 0.525 µM and -81.9%.
Compound `CCc1ccc(OCc2ccccc2C(=O)Nc2ccc3nc(C)cc(N)c3c2)cc1` [JTC-801] registered an AC50 cell viability in assay [1] of 3.32 µM. In assay [2], the efficacy is -94.1%.
In turn, `CC(C)NC(=O)COc1cccc(-c2nc(Nc3ccc4[nH]ncc4c3)c3ccccc3n2)c1` [KD-025] returned an AC50 cell viability in assay [1] of 8.33 µM. Also, the efficacy in assay [2] was -66.8%.
For `CC(C)CNc1ccnc(NCc2csc(-c3ccccc3)n2)n1` [KHS-101], in that order: 11.8 µM and -129%.
As for `COc1cc2nccc(Oc3ccc(NC(=O)Nc4ccc(F)cc4F)c(F)c3)c2cc1OC` [KI-8751], the AC50 cell viability in assay [1] was determined as 2.09 µM. In addition, the efficacy in assay [2] was -47.4%.
As for `COc1ccc([S+](=O)([O-])N(CCO)c2ccccc2CN(C)C/C=C/c2ccc(Cl)cc2)cc1` [KN-93], the AC50 cell viability in assay [1] came out at 14.8 µM. In addition, the efficacy in assay [2] is -93.9%.
On to `O=C(/C=C\n1cnc(-c2cc(C(F)(F)F)cc(C(F)(F)F)c2)n1)N1CC(F)(F)C1` [KPT-276], for which, in assay [1], the AC50 cell viability is 0.59 µM. In addition, in assay [2], the efficacy is -75.6%.
Compound `Nc1ccc(/C=C/C(=O)NCc2cc3cc(-c4ccc(C(=O)N5CCC(F)(F)CC5)cc4)cc(-c4ccc(F)cc4)c3o2)cn1` [KPT-9274] displayed an AC50 cell viability in assay [1] of 0.59 µM. In addition, in assay [2], the efficacy was -91.7%.
`NC(CO)(CO)CCc1ccc(Sc2cccc(OCc3ccccc3)c2)cc1Cl` [KRP-203] came in with an AC50 cell viability in assay [1] of 7.42 µM. Also, the efficacy in assay [2] is -92.6%.
The like results for `O=C/1\C=C(/OC(=C1)/C2=C3SC4=C(SC3=CC=C2)C=CC=C4)N5CCOCC5` [KU-0064] were, in that order, 16.6 µM and -77.5%.
As to `O=C(c1ccc(/C=C/c2n[nH]c3ccccc23)cc1)N1CCNCC1` [KW-2449], the AC50 cell viability in assay [1] worked out at 8.33 µM. The efficacy in assay [2] is -96.6%.
The compound `CCc1c(O)cc(O)c(C(=O)c2ccc(OCCN3CCOCC3)c(OC)c2)c1CC(=O)N(CCOC)CCOC` [KW-2478] registered an AC50 cell viability in assay [1] of 0.833 µM. In addition, the efficacy in assay [2] was -53.2%.
Regarding `O=C(Cc1ccc(-c2ccc(OCCN3CCOCC3)cc2)cn1)NCc1ccccc1` [KX-01], the AC50 cell viability in assay [1] worked out at 0.0833 µM. Further, the efficacy in assay [2] is -59.6%.
Consider `N[S+](=O)([O-])c1ccc(NC(=S)N2CCN(C/C=C/c3ccccc3)CC2)cc1` [LF3], for which, in assay [1], the AC50 cell viability was determined as 2.95 µM. Besides, the efficacy in assay [2] was -42.2%.
For `Cc1cc(-c2ncc(CC(=O)Nc3ccc(-c4cnccn4)cn3)cc2C)ccn1` [LGK-974], in assay [1], the AC50 cell viability came out at 16.6 µM. Further, the efficacy in assay [2] is -52.5%.
Consider `N[S+](=O)([O-])c1cccc2c1C(=O)c1cccc(O)c1C2=O` [LLL-12], for which the AC50 cell viability in assay [1] is 0.833 µM. In assay [2], the efficacy is -88%.
Turning to `Cc1cn(CCN2CCN(c3ccccc3-c3cc(C#N)cc(C(=O)NCCCN4CCCC4)c3)CC2)c2ccccc12` [LLY-507], in assay [1], the AC50 cell viability is 26.3 µM. The efficacy in assay [2] is -130%.
The compound `COC1=C(OC)C=C\2C(=C1)C(=O)N(CCCNCCO)\C3=C2C(=O)C4=C3C=C5OCOC5=C4` [LMP-744] had an AC50 cell viability in assay [1] of 4.17 µM. Further, the efficacy in assay [2] is -99.5%.
`COc1cc(C(=O)N2CCC(N3CCN(C)CC3)CC2)ccc1Nc1ncc2c(n1)N(C)c1ccccc1C(=O)N2C` [LRRK2-IN-1] showed an AC50 cell viability in assay [1] of 6.61 µM. Moreover, the efficacy in assay [2] is -94.6%.
On to `Cc1c[nH]c2ncnc(N3CCC(CN)(C(=O)Nc4cccc(OC(=O)N(C)C)c4)CC3)c12` [LX-7101], for which, in assay [1], the AC50 cell viability is 14.8 µM and 11.8 µM. Besides, the efficacy in assay [2] is -68.9% and -70.5%.
`CC1(N)CCN(c2cccnc2NC(=O)c2nc(-c3ncccc3C(F)(F)F)cnc2N)CC1` [LXS-196]: the AC50 cell viability in assay [1] was found to be 16.6 µM. The efficacy in assay [2] was -70.1%.
As for `C[S+](=O)([O-])CCNCc1ccc(-c2ccc3ncnc(Nc4ccc(OCc5cccc(F)c5)c(Cl)c4)c3c2)o1` [Lapatinib], the AC50 cell viability in assay [1] was determined as 16.6 µM. For the same compound, the efficacy in assay [2] was -99.2%.
In the case of `CCN(C(=O)C/1=C(O)/C2=C(C=CC=C2Cl)N(C)C1=O)C3=CC=CC=C3` [Laquinimod], the AC50 cell viability in assay [1] worked out at 10.5 µM. For the same compound, the efficacy in assay [2] is -65.8%.
For `Cc1oncc1C(=O)Nc1ccc(C(F)(F)F)cc1` [Leflunomide], in that order: 3.32 µM and -31.2%.
The compound `COc1cc2nccc(Oc3ccc(NC(=O)NC4CC4)c(Cl)c3)c2cc1C(N)=O` [Lenvatinib] gave an AC50 cell viability in assay [1] of 26.3 µM. The efficacy in assay [2] was -61.7%.
In turn, `CCC(=C/[C@H](C)C/C=C/C(C)=C/[C@@H](C)C(=O)[C@@H](C)[C@H](O)[C@@H](C)C/C(C)=C/C(=O)O)/C=C/[C@@H]1OC(=O)C=C[C@@H]1C` [Leptomycin B] showed an AC50 cell viability in assay [1] of 0.00372 µM. Further, the efficacy in assay [2] is -80.9%.
Take `C[C@@]12O[C@@H](C[C@]1(O)CO)n1c3ccccc3c3c4c(c5c6ccccc6n2c5c31)CNC4=O` [Lestaurtinib]: the AC50 cell viability in assay [1] is 1.05 µM. For the same compound, the efficacy in assay [2] was -63.8%.
For the compound `CCC[C@H](Nc1nc(-c2ccc(NC(=O)NCC)c(OC)c2)ncc1C)c1cccnc1` [Lexibulin hydrochloride], the AC50 cell viability in assay [1] worked out at 0.0742 µM. Also, the efficacy in assay [2] is -73.5%.
Take `Cc1ccc(F)c(NC(=O)Nc2ccc(-c3cccc4[nH]nc(N)c34)cc2)c1` [Linifanib]: the AC50 cell viability in assay [1] stood at 9.34 µM. Besides, the efficacy in assay [2] was -90.4%.
In assay [1], `C[C@]1(O)CC(C1)C2=NC(=C3[N]2C=CN=C3N)C4=CC5=C(C=C4)C=CC(=N5)C6=CC=CC=C6` (configuration not stated) [Linsitinib] gave an AC50 cell viability of 23.5 µM. Also, the efficacy in assay [2] is -46.3%.
For `Nc1nc(OCc2cc(Br)cs2)c2[nH]cnc2n1` [Lomeguatrib], in that order: 18.6 µM and -56%.
With `NC(=O)N1CCC(CC(=O)N2CCC([C@H]3c4ncc(Br)cc4CCc4cc(Cl)cc(Br)c43)CC2)CC1` [Lonafarnib], the AC50 cell viability in assay [1] turned out to be 18.6 µM. Also, in assay [2], the efficacy is -100%.
On to `CN(C)C(=O)C(CCN1CCC(O)(c2ccc(Cl)cc2)CC1)(c1ccccc1)c1ccccc1` [Loperamide hydrochloride], for which, in assay [1], the AC50 cell viability was 18.6 µM. For the same compound, the efficacy in assay [2] was -98.7%.
In assay [1], `CC1Oc2cc(cnc2N)-c2c(nn(C)c2C#N)CN(C)C(=O)c2ccc(F)cc21` (configuration not stated) [Lorlatinib] had an AC50 cell viability of 14.8 µM. Besides, the efficacy in assay [2] was -46.2%.
The like results for `C[C@H]1Oc2cc(cnc2N)-c2c(nn(C)c2C#N)CN(C)C(=O)c2ccc(F)cc21` [Lorlatinib] were, in that order, 0.372 µM and -33.7%.
Take `CCN(CC)CCNc1ccc(C)c2sc3ccccc3c(=O)c12` [Lucanthone]: the AC50 cell viability in assay [1] stood at 14.8 µM. In assay [2], the efficacy is -119%.
In the case of `CNC(=O)c1cccc2cc(Oc3ccnc4cc(OCC5(N)CC5)c(OC)cc34)ccc12` [Lucitanib], the AC50 cell viability in assay [1] turned out to be 14.8 µM. Further, in assay [2], the efficacy is -96.6%.
For `COc1ccc2[nH]c3c(c2c1)CCN[C@]31CS[C@@H]2c3c(OC(C)=O)c(C)c4c(c3[C@H](COC1=O)N1[C@@H]2[C@H]2c3c(cc(C)c(OC)c3O)C[C@@H]([C@@H]1O)N2C)OCO4` [Lurbinectedin], in that order: 0.00539 µM and -72.4%.
For the compound `NC(=O)c1cccc2c(NC(CN3CCC3)c3ccc(Cl)c(C(F)(F)F)c3)ncnc12` (configuration not stated) [M2698], in assay [1], the AC50 cell viability is 10.5 µM. The efficacy in assay [2] was -116%.
For `CCCCOC(=O)N[S+](=O)([O-])c1sc(CC(C)C)cc1-c1ccc(Cn2ccnc2)cc1` [M-024], in that order: 18.6 µM and -84.4%.
On to `CN(C)c1ccc(C(=O)NCCCCCCC(=O)NO)cc1` [M-344], for which the AC50 cell viability in assay [1] amounted to 0.742 µM. Besides, the efficacy in assay [2] is -84.5%.
In turn, `Cn1cc(/C=C/C(=O)c2cccc(F)c2)cc1/C=C/C(=O)NO` [MC-1568] returned an AC50 cell viability in assay [1] of 14.8 µM. The efficacy in assay [2] is -49.8%.
In assay [1], `CC1(N2CCC(n3c([C@@H]4CCCNC4)nc4ccccc43)CC2)CCCCCCC1` [MCOPPB] showed an AC50 cell viability of 9.34 µM. The efficacy in assay [2] is -82.3%.
The like results for `OC(c1cc(C(F)(F)F)nc2c(C(F)(F)F)cccc12)C1CCCCN1` (configuration not stated) [MEFLOQUINE] were, in that order, 20.9 µM and -109%.
As to `CCC[C@@H](C=O)NC(=O)[C@H](CC(C)C)NC(=O)[C@H](CC(C)C)NC(=O)OCc1ccccc1` [MG-115], the AC50 cell viability in assay [1] came to 0.661 µM. The efficacy in assay [2] is -93.3%.
Take `CC(C)C[C@@H](C=O)NC(=O)[C@H](CC(C)C)NC(=O)[C@H](CC(C)C)NC(=O)OCc1ccccc1` [MG-132]: in assay [1], the AC50 cell viability came out at 0.468 µM. In addition, the efficacy in assay [2] is -89.4%.
As to `CCCCCCCc1ccc(CCc2cccc(O)c2C(=O)O)cc1` [MG-149], the AC50 cell viability in assay [1] came to 18.6 µM. In addition, the efficacy in assay [2] was -42.3%.
`Cn1cnc(-c2cc3nccc(Oc4ccc(NC(=S)NC(=O)Cc5ccccc5)cc4F)c3s2)c1` [MGCD-265]: the AC50 cell viability in assay [1] came out at 16.6 µM. Also, the efficacy in assay [2] was -59.3%.
In assay [1], `COCCOc1nc(-c2ccc(Cl)c(Cl)c2)n(-c2ccc(NC(=O)CCl)cc2)n1` [MI-2] gave an AC50 cell viability of 18.6 µM. Besides, the efficacy in assay [2] is -63.7%.
